Measurements as given in patent publication US7632819B1, “Methods and compositions for inhibiting PKC delta cleavage for treatment and prevention of neurodegeneration and apoptosis” (Iowa State University Research Foundation, Inc., priority 2004, dated 2009).
Where a SMILES comes first, the peptide text is derived from it. The star is where a group is joined. Cbz = O=C(OCc1ccccc1)*; CH2F = FC*

How the values were obtained:
[1] = tested on: N27 mesencephalic neuronal cells; assay: MTT cytotoxicity assay, MPP+- and 6-OHDA-induced cytotoxicity; details: N27 cells, 100 μM 6-OHDA 24 hr, inhibitor 50 μM
Source text: Chemicals. Protease cocktail, ATP, protein-A-sepharose, protein-G-sepharose and anti-â-actin antibody were obtained from Sigma-Aldrich (St. Louis, Mo.); mouse tyrosine hydroxylase antibody was purchased from Chemicon (Temecula, Calif.); the rabbit polyclonal antibody for tyrosine hydroxylase was obtained from Calbiochem Bioscience, Inc. (King of Prussia, Pa.); rabbit PKCδ antibody was purchased from Santa Cruz Biotechnology, Inc. (Santa Cruz, Calif.); anti-rabbit and anti-mouse secondary antibodies and the ECL chemiluminescence kit were purchased from Amersham Pharmacia Biotech. (Piscataway, N.J.). Alexa 488 conjugated antirabbit/mouse, Cy3 conjugated anti-rabbit/mouse antibody and Hoechst 33342 were purchased from Molecular Probes, Inc. (Eugene, Oreg.). [ã-32P]ATP was purchased from Perkin Elmer Life Science Products (Boston, Mass.). The Bradford protein assay kit was purchased from Bio-Rad Laboratories (Hercules, Calif.). RPMI, fetal bovine serum, -glutamine, penicillin, and streptomycin were purchased from Invitrogen (Gaithersburg, Md.). Quantity One 4.2.0 software was purchased from Bio-Rad. Design and synthesis of z-DIPD-fmk (SEQ ID NO:5). To develop a cell permeable peptide inhibitor to specifically block PKCδ cleavage, we designed the tetrapeptide Asp-Ile-Pro-Asp (DIPD) (SEQ ID NO:5) corresponding to position 324-327 in rat PKCδ cDNA representing the caspase-3 cleavage site. Since this peptide is directed against the caspase-3 cleavage site of PKCδ, it should prevent the proteolytic cleavage and activation of PKCδ mediated by caspase-3. The custom synthesis of the tetrapeptide Z-Asp(OMe)-Ile-Pro-Asp(OMe)-FMK (SEQ ID NO:5) was performed at MP Biomedicals (Irvine, Calif.), a quality company that specializes in developing cell permeable peptide inhibitors directed against apoptosis cell signaling molecules. […]

[2] = biological target: T1, caspase-3 (Rattus norvegicus, UniProt P55213); assay: Caspase-3 activity assay with fluorogenic substrate Ac-DEVD-AFC in treated N27 cells; format: cell-based
T1 construct: N27 cells were exposed to either MPP^+ or 6-OHDA in the absence or presence of z-DIPD-fmk; endogenous in cells; host or cells: N27 rat mesencephalic dopaminergic neuronal cells
T1 sequence (P55213 29-175 limits assumed): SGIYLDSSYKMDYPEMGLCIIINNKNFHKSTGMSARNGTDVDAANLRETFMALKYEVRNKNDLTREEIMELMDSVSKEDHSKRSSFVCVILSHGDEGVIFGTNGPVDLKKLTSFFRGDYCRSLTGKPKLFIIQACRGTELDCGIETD
T1 sequence (P55213 176-277 limits assumed): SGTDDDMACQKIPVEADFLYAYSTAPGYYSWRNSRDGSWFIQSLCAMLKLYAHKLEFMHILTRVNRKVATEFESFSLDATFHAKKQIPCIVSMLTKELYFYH
Source text: Chemicals. Protease cocktail, ATP, protein-A-sepharose, protein-G-sepharose and anti-â-actin antibody were obtained from Sigma-Aldrich (St. Louis, Mo.); mouse tyrosine hydroxylase antibody was purchased from Chemicon (Temecula, Calif.); the rabbit polyclonal antibody for tyrosine hydroxylase was obtained from Calbiochem Bioscience, Inc. (King of Prussia, Pa.); rabbit PKCδ antibody was purchased from Santa Cruz Biotechnology, Inc. (Santa Cruz, Calif.); anti-rabbit and anti-mouse secondary antibodies and the ECL chemiluminescence kit were purchased from Amersham Pharmacia Biotech. (Piscataway, N.J.). Alexa 488 conjugated antirabbit/mouse, Cy3 conjugated anti-rabbit/mouse antibody and Hoechst 33342 were purchased from Molecular Probes, Inc. (Eugene, Oreg.). [ã-32P]ATP was purchased from Perkin Elmer Life Science Products (Boston, Mass.). The Bradford protein assay kit was purchased from Bio-Rad Laboratories (Hercules, Calif.). RPMI, fetal bovine serum, -glutamine, penicillin, and streptomycin were purchased from Invitrogen (Gaithersburg, Md.). Quantity One 4.2.0 software was purchased from Bio-Rad. Design and synthesis of z-DIPD-fmk (SEQ ID NO:5). To develop a cell permeable peptide inhibitor to specifically block PKCδ cleavage, we designed the tetrapeptide Asp-Ile-Pro-Asp (DIPD) (SEQ ID NO:5) corresponding to position 324-327 in rat PKCδ cDNA representing the caspase-3 cleavage site. Since this peptide is directed against the caspase-3 cleavage site of PKCδ, it should prevent the proteolytic cleavage and activation of PKCδ mediated by caspase-3. The custom synthesis of the tetrapeptide Z-Asp(OMe)-Ile-Pro-Asp(OMe)-FMK (SEQ ID NO:5) was performed at MP Biomedicals (Irvine, Calif.), a quality company that specializes in developing cell permeable peptide inhibitors directed against apoptosis cell signaling molecules. Briefly, the synthesis was performed with the reaction of Boc-D(OMe)-OH with MBFM (Magnesium benzyl fluoromalonate) to produce Beta-Keto fluoroester, followed by hydrogenation with Pd/c to produce Boc-D(OMe)FK, which was converted into Tfa salt using trifluoroacetic acid. Coupling of Tfa salt with Z-D(OMe)—I—P—OH in DMF with HOBT, HBTU DIEA and workup produced a crude product which was purified by column chromatography over silica gel. Elution with EtOAC:MeOH 95:5 gave pure fractions which were mixed and dried. Crystallization with EtOAC/Hexane, filtration and drying produced the pure product. Animals. Time-pregnant C57/bL mice were housed under standard conditions: constant temperature (22±1° C.), humidity (relative, 30%) and a 12-h light/dark cycle with free access to food and water. The animals and protocol procedures were approved and supervised by the Committee on Animal Care (COAC) at Iowa State University. Cell culture. Rat mesencephalic dopaminergic neuronal (N27) cells were cultured as described earlier (Anantharam et al., 2002). Briefly, cells were grown in RPMI 1640 medium containing 10% fetal bovine serum, 2 mM L-glutamine, 50 units of penicillin, and 50 μg/ml streptomycin. Cells were maintained in a humidified atmosphere of 5% CO2 at 37° C. Primary mesencephalic neuronal cultures were prepared from the ventral mesencephalon of gestational 18-day-old mice embryos as described previously (Yang et al., 2004). Mesencephalic tissues were dissected and maintained in ice-cold Ca2+-free HBSS and then dissociated in HBSS solution containing trypsin-EDTA (0.25%) for 20 min at 37° C. […]

[3] = tested on: primary mesencephalic dopaminergic neuronal cells; assay: TH immunostaining, TH+ cell count and neuronal process length in primary mesencephalic cultures; format: cell-based, mouse
Source text: Chemicals. Protease cocktail, ATP, protein-A-sepharose, protein-G-sepharose and anti-â-actin antibody were obtained from Sigma-Aldrich (St. Louis, Mo.); mouse tyrosine hydroxylase antibody was purchased from Chemicon (Temecula, Calif.); the rabbit polyclonal antibody for tyrosine hydroxylase was obtained from Calbiochem Bioscience, Inc. (King of Prussia, Pa.); rabbit PKCδ antibody was purchased from Santa Cruz Biotechnology, Inc. (Santa Cruz, Calif.); anti-rabbit and anti-mouse secondary antibodies and the ECL chemiluminescence kit were purchased from Amersham Pharmacia Biotech. (Piscataway, N.J.). Alexa 488 conjugated antirabbit/mouse, Cy3 conjugated anti-rabbit/mouse antibody and Hoechst 33342 were purchased from Molecular Probes, Inc. (Eugene, Oreg.). [ã-32P]ATP was purchased from Perkin Elmer Life Science Products (Boston, Mass.). The Bradford protein assay kit was purchased from Bio-Rad Laboratories (Hercules, Calif.). RPMI, fetal bovine serum, -glutamine, penicillin, and streptomycin were purchased from Invitrogen (Gaithersburg, Md.). Quantity One 4.2.0 software was purchased from Bio-Rad. Design and synthesis of z-DIPD-fmk (SEQ ID NO:5). To develop a cell permeable peptide inhibitor to specifically block PKCδ cleavage, we designed the tetrapeptide Asp-Ile-Pro-Asp (DIPD) (SEQ ID NO:5) corresponding to position 324-327 in rat PKCδ cDNA representing the caspase-3 cleavage site. Since this peptide is directed against the caspase-3 cleavage site of PKCδ, it should prevent the proteolytic cleavage and activation of PKCδ mediated by caspase-3. The custom synthesis of the tetrapeptide Z-Asp(OMe)-Ile-Pro-Asp(OMe)-FMK (SEQ ID NO:5) was performed at MP Biomedicals (Irvine, Calif.), a quality company that specializes in developing cell permeable peptide inhibitors directed against apoptosis cell signaling molecules. Briefly, the synthesis was performed with the reaction of Boc-D(OMe)-OH with MBFM (Magnesium benzyl fluoromalonate) to produce Beta-Keto fluoroester, followed by hydrogenation with Pd/c to produce Boc-D(OMe)FK, which was converted into Tfa salt using trifluoroacetic acid. Coupling of Tfa salt with Z-D(OMe)—I—P—OH in DMF with HOBT, HBTU DIEA and workup produced a crude product which was purified by column chromatography over silica gel. Elution with EtOAC:MeOH 95:5 gave pure fractions which were mixed and dried. Crystallization with EtOAC/Hexane, filtration and drying produced the pure product. Animals. Time-pregnant C57/bL mice were housed under standard conditions: constant temperature (22±1° C.), humidity (relative, 30%) and a 12-h light/dark cycle with free access to food and water. The animals and protocol procedures were approved and supervised by the Committee on Animal Care (COAC) at Iowa State University. Cell culture. Rat mesencephalic dopaminergic neuronal (N27) cells were cultured as described earlier (Anantharam et al., 2002). Briefly, cells were grown in RPMI 1640 medium containing 10% fetal bovine serum, 2 mM L-glutamine, 50 units of penicillin, and 50 μg/ml streptomycin. Cells were maintained in a humidified atmosphere of 5% CO2 at 37° C. Primary mesencephalic neuronal cultures were prepared from the ventral mesencephalon of gestational 18-day-old mice embryos as described previously (Yang et al., 2004). Mesencephalic tissues were dissected and maintained in ice-cold Ca2+-free HBSS and then dissociated in HBSS solution containing trypsin-EDTA (0.25%) for 20 min at 37° C. The dissociated cells were then plated at equal density (0.5×10^6 cells) in 30-mm-diameter tissue culture wells pre-coated with poly-lysine (1 mg/ml). Cultures were maintained in a chemically defined, serum-free medium consisting of neurobasal medium fortified with B-27 supplements, L-glutamine (500 μM), penicillin (100 IU/ml), and streptomycin (100 μg/ml) (Life Technologies). The cells were maintained in a humidified CO2 incubator (5% CO2, 37° C.) for 24 hr and then treated with cytosine arabinoside (10 μM) for 24 hr to inhibit glial cell proliferation. […]

[4] = 10 μM MPP+ 24 hr, inhibitor 10 and 50 μM

In the case of CC[C@H](C)[C@H](NC(=O)[C@H](CC(=O)OC)NC(=O)OCc1ccccc1)C(=O)N1CCC[C@H]1C(=O)N[C@@H](CC(=O)OC)C(=O)CF [z-DIPD-fmk, Z-Asp(OMe)-Ile-Pro-Asp(OMe)-FMK] (Cbz-D(OMe)IPD(OMe)-CH2F), the “protection against 6-OHDA-induced cell death (MTT)” value [1] is reported as “significantly protected”, the “effect on 6-OHDA-induced caspase-3 activation” value ([2]; 100 μM 6-OHDA 24 hr, inhibitor 50 μM) is reported as “completely blocked” and the “effect on MPP+-induced caspase-3 activation” value ([2]; 300 μM MPP+ 36 hr, inhibitor 50 μM) is reported as “completely blocked”. The “effect on MPP+- and 6-OHDA-induced caspase-3 activation” value ([2]; co-treatment, concentration not given) was “dose-dependently attenuated”, the “TH+ cell counts, protection against MPP+ neurotoxicity” value [3, 4] was “nearly complete protection” and the “average lengths of TH+ neuronal processes versus MPP+ only” value [3, 4] was “significantly longer”. The “TH+ cell counts, protection against 6-OHDA neurotoxicity” value ([3]; 30 μM 6-OHDA 24 hr, inhibitor 10 and 50 μM) was “nearly complete protection”, the “rescue of tyrosine hydroxylase positive neurons from MPP+- and 6-OHDA-induced toxicity” value ([3]; mouse primary mesencephalic cultures) was “completely rescued” and the “effect on 6-OHDA-induced degeneration of TH+ neurons and their processes” value ([3]; primary nigral cultures, 30 μM 6-OHDA 24 hr, inhibitor 10 and 50 μM) was “significantly blocked”. The “effect on MPP+-induced degeneration of TH+ neurons and their processes” value ([3]; primary nigral dopaminergic neurons, 10 μM MPP+ 24 hr, inhibitor 10 and 50 μM) was “significantly blocked”.
